Laboratory results taken from patent publication US10329259B2, “Pyrazole derivatives and their use as cannabinoid receptor mediators” (The United States of America, as represented by the …, priority 2014, dated 2019).
Like-named read-outs stand apart in the source and are kept apart here.

Biological target: T1, mouse CB1 receptor (Mus musculus, UniProt P47746)
T1 construct: radioligand displacement assay using mouse brain plasma membranes; from tissue; host or cells: mouse brain plasma membranes
Experiment: radioligand displacement assay using mouse brain plasma membranes and 3H-CP55540
Type: binding
Source text: In addition, the compounds disclosed herein may be less lipophilic.

T1 sequence (P47746 whole entry): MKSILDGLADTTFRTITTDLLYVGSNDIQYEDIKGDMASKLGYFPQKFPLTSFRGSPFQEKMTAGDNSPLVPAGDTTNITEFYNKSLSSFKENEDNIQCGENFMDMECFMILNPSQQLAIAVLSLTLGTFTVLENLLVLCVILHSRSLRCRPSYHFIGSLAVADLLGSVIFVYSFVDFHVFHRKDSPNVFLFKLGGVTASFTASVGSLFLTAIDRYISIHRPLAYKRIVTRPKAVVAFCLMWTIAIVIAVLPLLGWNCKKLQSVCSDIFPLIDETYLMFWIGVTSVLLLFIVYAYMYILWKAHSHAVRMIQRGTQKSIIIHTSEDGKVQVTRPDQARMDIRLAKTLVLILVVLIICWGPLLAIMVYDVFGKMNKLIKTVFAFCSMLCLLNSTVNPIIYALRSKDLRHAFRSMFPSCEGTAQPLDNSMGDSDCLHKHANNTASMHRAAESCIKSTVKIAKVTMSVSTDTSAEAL

Compound	Ki (mouse brain plasma membranes, 3H-CP55540 as labeled ligand, read-out: Ki CB1)	Ki
CC(=O)NC(=N)NC(=NS(=O)(=O)N1CCC(F)(F)CC1)N1CC(c2ccccc2)C(c2ccc(Cl)cc2)=N1 (stereo not drawn) [MRI-1950]	1.2 nM	–
C/C(N)=N/C(=N/S(=O)(=O)N1CCC(C(F)(F)F)CC1)N1CC(c2ccccc2)C(c2ccc(Cl)cc2)=N1 (stereo not drawn) [Table 1 Serial # 13]	–	3 nM
CC(C)(C)/C(N)=N/C(=N/S(=O)(=O)N1CCC(F)(F)CC1)N1CC(c2ccccc2)C(c2ccc(Cl)cc2)=N1 (stereo not drawn) [Table 1 Serial # 10]	–	21 nM
